Counter-ions that a name gives are not always drawn. Like-named read-outs stand apart in the source and are kept apart here. Starred links: 1 amine or outer side, 2 acyl side, 3 side chain; linkers in the order of their positions; H or OH if unused. Non-standard residues stand in square brackets, D forms with d. Residues, ends and D or L forms follow the SMILES beside them. Argψ(COCH2)Gly = N=C(N)NCCC[C@H](N[*:1])C(=O)CCC(=O)[*:2]; X1 = N=C(N)NCCC[C@H](N[*:1])C(=O)CCCCC(=O)[*:2]; Cha = N[C@@H](CC1CCCCC1)C(=O)O; dCha = N[C@H](CC1CCCCC1)C(=O)O; Ava = NCCCCC(=O)O
How the values were obtained:
thrombin [1] = biological target: T1, thrombin (Homo sapiens, UniProt P00734); experiment: Antithrombin activity in vitro, Ki (Table III); type: biochemical; details: first test where two are given; means for 3-5 observations
Protocol: The reactions were initiated by addition of the substrate dissolved in 0.1 M Tris-HCl buffer, pH 7.8 to a preincubated solution of enzyme (0.4 or 0.04 nM) and variable concentrations of inhibitor dissolved in the same buffer. Initial velocities were recorded and Ki values were determined graphically by weighted linear regression of Dixon plots in the case of competitive inhibition, or by the method of Baici (Baici, 1981) for hyperbolic inhibition. Fluorogenic assays were conducted using the same conditions and instrument as above operating in the fluorescence mode in the Ratio (λex=383 nm, λem=455 nm). Fluorescence intensities were calibrated with 7-amino-4-methyl coumarin solution of known concentration. The specificity of the synthetic peptides of the present invention for human α-thrombin may also be determined by comparing their relative inhibitory activities towards both human α-thrombin and bovine α-thrombin and trypsin by comparing Ki values obtained in the amidolytic assay of thrombin activity.

thrombin [2] = biological target: T1, thrombin; experiment: Thrombin time in buffer containing fibrinogen (dTT); type: biochemical; details: read-out: IC50 dTT (concentration required to double thrombin time)
Excerpt: *Concentration of compound required to double thrombin time in buffer

[3] = system: venous thrombosis in vena cava; experiment: Venous thrombosis model (balloon catheter induced-injury and stasis in vena cava); type: in vivo, rat; details: rats
Protocol: Rats ranging in weight from 350 g-450 g were anaesthetized with urethane [50%] at 1500 mg/kg IP. The abdomen and neck were shaved and prepared for surgery.
An incision was made from the base of the sternum to approximately 10-20 mm up from the penile sheath. Another incision was made across the end of the incision (90 degree) to create a flap to be hemostat open. […] Two sutures were loosely looped around the vein(1) and the vein and artery(2), just posterior to the renal veins and arteries. All other branches coming off dorsally from the vena cava were ligated as well as any other veins which may branch of this vein (approximately 4-6 depending on rat). Two more sutures were looped around the vein(1) and artery and vein(2) at the bifurcation of the femoral vein and artery. The right jugular vein was isolated, for later injection of compound.
An incision in the upper interior leg was made and the femoral vein and artery were exposed. The femoral vein was isolated and two sutures were looped around it. One suture was ligated distally, and the other one was pulled tight (proximal) to stop blood flow through the vessel. A very small incision was made into the vein and a 2F fogarty catheter was inserted. The catheter was fed up the femoral vein to the upper sutures (near the renal veins). At this point, inject the compound via the isolated right jugular vein and wait 1 minute. At 1 minute inflate the fogarty catheter with enough saline to distend the vena cava, but still allowing the catheter to be pulled back down to the point of femoral bifurcation without bursting the vessel. This procedure was repeated 3 times. After the third passage, the catheter was removed and as quickly as possible, the femoral incision was ligated with the proximal suture and the suture which was looped around only the vena cava was ligated to stop return flow and allow thrombus growth and the timer was set for 30 minutes.
At this point, the intestines may be placed back in the body cavity, and moistened with saline if any drying has occurred, and skin kept closed with hemostat. […]

human plasma clotting = experiment: Human plasma clotting time; type: biochemical; details: read-out: IC50 plasma clotting time (concentration required to inhibit human plasma clotting time by 50%)
Protocol: Thus, for the determination of prothrombin time, 50 μl of reconstituted citrated normal human plasma (Sigma, St-Louis, Mo.) is mixed with 50 μl of thromboplastin solution at 37° C. in a 400 μl cuvette. […] The clotting time is recorded following recalcification with 100 μl of 25 mM CaCl2. The clotting time in the absence of inhibitor was between 19-22 sec.
The same procedure is adopted for the determination of activated partial thromboplastin time except that reconstituted plasma is activated for 3 minutes with cephalin (Sigma, St-Louis, Mo.).
**Concentration of compound required to inhibit human plasma clotting tim

human α-thrombin = human α-thrombin (Homo sapiens, UniProt P00734); experiment: Fluorogenic amidolytic assay of thrombin activity, hydrolysis of Tosyl-Gly-Pro-Arg-AMC (Table I)
[4] = system: activated partial thromboplastin time; experiment: Increase in APTT, bolus plus infusion model; type: in vivo, rat; details: intravenous bolus followed by infusion
[5] = system: carotid artery thrombosis; experiment: Ferric chloride injury-induced thrombosis model in carotid artery; details: rat carotid artery, FeCl3 injury
Protocol: Species: Rat, male, Sprague-Dawley.
Animals were laid on a heating pad which was maintained at 37° C. The carotid artery was approached through a midline cervical incision. Carefully blunt dissection was used to expose and isolate the vessel from the carotid sheath. […] The vessel temperature was monitored for 60 minutes after application of FeCl3. […] The site of the experiment was covered with aluminum foil in order to protect the FeCl3 from degradation by light.
All the samples were kept on ice and centrifuged as soon as possible at 2000 Rpm for 10 min., 4° C. The plasma was analyzed in duplicate for activated partial thromboplastin time on a haemostasis analyzer (STAGO ST4™).
From a group of four animals, two arteries were stored at -80° C. for further analysis. The others were observed under a light microscope at 40× (Leica™) for quantification of the occlusion (complete, partial, no occlusion).
In some studies, the animal was receiving the compound by i.v. infusion instead of a bolus. In this case, the jugulars and femoral veins were cannulated with Sylastic tubing (I.D. 0.025IN). This left jugular was used for blood sampling and the right one for the infusion line. The compound was infused 30 minutes before injury and then for an other 30 minutes post-injury. Blood samples were taken at time 0, 30 and 60 minutes for APTT test and thrombin test (1 ml of blood/90 ul of citrated buffer).

Molecule: CC[C@H](C)[C@H](NC(=O)[C@@H]1CCCN1C(=O)[C@H](CCC(=O)O)NC(=O)[C@H](Cc1ccccc1)NC(=O)[C@H](CC(=O)O)NC(=O)CNC(=O)[C@H](CC(=O)O)NC(=O)[C@H](CC(N)=O)NC(=O)[C@H](Cc1c[nH]cn1)NC(=O)[C@H](CO)NC(=O)[C@H](CCC(N)=O)NC(=O)CCC(=O)[C@H](CCCNC(=N)N)NC(=O)[C@@H]1CCCN1C(=O)[C@@H](CC1CCCCC1)NC(C)=O)C(=O)N1CCC[C@H]1C(=O)N[C@@H](CCC(=O)O)C(=O)N[C@@H](CCC(=O)O)C(=O)N[C@@H](Cc1ccc(O)cc1)C(=O)N[C@@H](CC1CCCCC1)C(=O)N[C@@H](CCC(N)=O)C(=O)O [P314] (Ac-[dCha]P[Argψ(COCH2)Gly]QSHNDGDFEPIPEEY[Cha]Q-OH)
- Ki (thrombin [1]): 0.02 nM
- IC50 (thrombin [2]): 1.3 nM

Molecule: Hirulog: comparator thrombin inhibitor, BCH number 1724
- Minimum Bolus dose needed to achieve patency ([3]; i.v. bolus): 0.05 to 0.125 mg/kg

Molecule: Ac(D-Phe)-thioPro-Arg-(CH2)2 (CO)-QSHNDGDFEEIPEEYLQ-OH [P290]
- IC50 (human plasma clotting): 11 nM
- Ki (thrombin [1]): 0.9 nM

Molecule: CC[C@H](C)[C@H](NC(=O)[C@H](CCC(=O)O)NC(=O)[C@H](CCC(=O)O)NC(=O)[C@H](Cc1ccccc1)NC(=O)[C@H](CC(=O)O)NC(=O)CNC(=O)[C@H](CC(=O)O)NC(=O)[C@H](CC(N)=O)NC(=O)[C@H](Cc1c[nH]cn1)NC(=O)[C@H](CO)NC(=O)[C@H](CCC(N)=O)NC(=O)CCCCC(=O)[C@H](CCCNC(=N)N)NC(=O)[C@@H]1CCCN1C(=O)[C@@H](Cc1ccccc1)NC(C)=O)C(=O)N1CCC[C@H]1C(=O)N[C@@H](CCC(=O)O)C(=O)N[C@@H](CCC(=O)O)C(=O)N[C@@H](Cc1ccc(O)cc1)C(=O)N[C@@H](CC(C)C)C(=O)N[C@@H](CCC(N)=O)C(=O)O [P103]
- Ki (human α-thrombin): 0.14 ± 0.02 nM

Molecule: CC[C@H](C)[C@H](NC(=O)[C@@H]1CCCN1C(=O)[C@H](CCC(=O)O)NC(=O)[C@H](Cc1ccccc1)NC(=O)[C@H](CC(=O)O)NC(=O)CNC(=O)[C@H](CC(=O)O)NC(=O)[C@H](CC(N)=O)NC(=O)[C@H](Cc1c[nH]cn1)NC(=O)[C@H](CO)NC(=O)[C@H](CCC(N)=O)NC(=O)CCC(=O)[C@H](CCCNC(=N)N)NC(=O)[C@@H]1CCCN1C(=O)[C@@H](Cc1ccccc1)NC(C)=O)C(=O)N1CCC[C@H]1C(=O)N[C@@H](CCC(=O)O)C(=O)N[C@@H](CCC(=O)O)C(=O)N[C@@H](Cc1ccc(O)cc1)C(=O)N[C@@H](CC1CCCCC1)C(=O)N[C@@H](CCC(N)=O)C(=O)O [BCH-2408] (Ac-[dF]P[Argψ(COCH2)Gly]QSHNDGDFEPIPEEY[Cha]Q-OH)
- Ki (thrombin [1]): 0.075 nM
- IC50 (thrombin [2]): 1 nM

Molecule: CC[C@H](C)[C@H](NC(=O)[C@@H]1CCCN1C(=O)[C@H](CCC(=O)O)NC(=O)[C@H](Cc1ccccc1)NC(=O)CCCCNC(=O)CCCCNC(=O)CCCCC(=O)[C@H](CCCNC(=N)N)NC(=O)[C@@H]1CCCN1C(=O)[C@H](N)Cc1ccccc1)C(=O)N1CCC[C@H]1C(=O)N[C@@H](CC(C)C)C(=O)O [BCH-2767, (D-Phe)-Pro-Arg-(CH2)4 (CO)--[NH(CH2)4 CO]2 -FEPIPL-TFA salt] (H-[dF]P[X1][Ava][Ava]FEPIPL-OH)
- Ki (thrombin [1]): 40 nM
- IC50 (thrombin [2]): 165 nM

Molecule: CC[C@H](C)[C@H](NC(=O)[C@@H]1CCCN1C(=O)[C@H](CCC(=O)O)NC(=O)[C@H](Cc1ccccc1)NC(=O)[C@H](CC(=O)O)NC(=O)CCCCNC(=O)CCCCNC(=O)CCCCC(=O)[C@H](CCCNC(=N)N)NC(=O)[C@@H]1CCCN1C(=O)[C@@H](Cc1ccccc1)NC(C)=O)C(=O)N1CCC[C@H]1C(=O)N[C@@H](CC(C)C)C(=O)O [BCH-2739, Ac(D-Phe)-Pro-Arg-(CH2)4 (CO)--[NH(CH2)4 (CO)]2 -DFEPIPL-OH] (Ac-[dF]P[X1][Ava][Ava]DFEPIPL-OH)
- Ki (thrombin [1]): 4 nM
- IC50 (thrombin [2]): 14.5 nM

Molecule: Ac(D-Phe)-Pro-Arg-(CH2)4 (CO)-[NH--CH2 --CH=CH--CH2 --(CO)]2 -DEFPIPY-OH ({Ac-dF-Pro-Arg-(CH2)4CO-NHCH2CH:CHCH2CO-NHCH2CH:CHCH2CO}-DEFPIPY-OH; also: Arg carbonyl bonded to (CH2)4 (non-amide backbone link)) [BCH-2414]
- IC50 (human plasma clotting): 10.5 nM
- Ki (thrombin [1]): 1 nM
- IC50 (thrombin [2]): 6.23 nM

Molecule: CC[C@H](C)[C@H](NC(=O)[C@H](CCC(=O)O)NC(=O)[C@H](CCC(=O)O)NC(=O)[C@H](Cc1ccccc1)NC(=O)[C@H](CC(=O)O)NC(=O)CNC(=O)[C@H](CC(=O)O)NC(=O)[C@H](CC(N)=O)NC(=O)[C@H](Cc1c[nH]cn1)NC(=O)[C@H](CO)NC(=O)[C@H](CCC(N)=O)NC(=O)CCC(=O)[C@H](CCCNC(=N)N)NC(=O)[C@@H]1CCCN1C(=O)[C@@H](CC1CCCCC1)NC(C)=O)C(=O)N1CCC[C@H]1C(=O)N[C@@H](CCC(=O)O)C(=O)N[C@@H](CCC(=O)O)C(=O)N[C@@H](Cc1ccc(O)cc1)C(=O)N[C@@H](CC(C)C)C(=O)N[C@@H](CCC(N)=O)C(=O)O [P311]
- Ki (thrombin [1]): 0.16 nM
- IC50 (thrombin [2]): 1.35 nM

Molecule: CC[C@H](C)[C@H](NC(=O)[C@H](CCC(=O)O)NC(=O)[C@H](CCC(=O)O)NC(=O)[C@H](Cc1ccccc1)NC(=O)[C@H](CC(=O)O)NC(=O)CNC(=O)[C@H](CC(=O)O)NC(=O)[C@H](CC(N)=O)NC(=O)[C@H](Cc1c[nH]cn1)NC(=O)[C@H](CO)NC(=O)CNC(=O)CC(=O)[C@H](CCCNC(=N)N)NC(=O)[C@@H]1CCCN1C(=O)[C@@H](Cc1ccccc1)NC(C)=O)C(=O)N1CCC[C@H]1C(=O)N[C@@H](CCC(=O)O)C(=O)N[C@@H](CCC(=O)O)C(=O)N[C@@H](Cc1ccc(O)cc1)C(=O)N[C@@H](CC(C)C)C(=O)N[C@@H](CCC(N)=O)C(=O)O [P109]
- Ki (thrombin [1]): 2.25 nM

Molecule: [D-Phe^45, Ala^47 ]hirudin^45-65 [P73]
- Ki (human α-thrombin; read-out: Human Ki, human α-thrombin mediated hydrolysis of Tosyl-Gly-Pro-Arg-AMC, mean of three determinations ± SEM, ni = not inhibited): 41 ± 15 nM

Molecule: CC[C@H](C)[C@H](NC(=O)[C@@H]1CCCN1C(=O)[C@H](CCC(=O)O)NC(=O)[C@H](Cc1ccccc1)NC(=O)[C@H](CC(=O)O)NC(=O)CCCCNC(=O)CCCCNC(=O)CCCCC(=O)[C@H](CCCNC(=N)N)NC(=O)[C@@H]1CCCN1C(=O)[C@H](N)Cc1ccccc1)C(=O)N1CCC[C@H]1C(=O)N[C@@H](CC(C)C)C(=O)O [BCH-2763, (D-Phe)-Pro-Arg-(CH2)4 (CO)--[NH(CH2)4 CO]2 -DFEPIPL-TFA salt] (H-[dF]P[X1][Ava][Ava]DFEPIPL-OH)
- Ki (thrombin [1]): 0.1 nM
- IC50 (thrombin [2]): 1.3 nM

Molecule: heparin [reference compound]
- Bolus needed to achieve the same increase in APTT [4]: 25 U
- Infusion needed to achieve the same increase in APTT [4]: 0.5 U/kg/min
- Dose needed to cause a doubling in patency time [5]: 200 U/kg
- Dose needed to achieve patency [3]: 10-15 U

Molecule: CC[C@H](C)[C@H](NC(=O)[C@H](CCC(=O)O)NC(=O)[C@H](CCC(=O)O)NC(=O)[C@H](Cc1ccccc1)NC(=O)[C@H](CC(=O)O)NC(=O)CNC(=O)[C@H](CC(=O)O)NC(=O)[C@H](CC(N)=O)NC(=O)[C@H](Cc1c[nH]cn1)NC(=O)[C@H](CO)NC(=O)[C@H](CCC(N)=O)NC(=O)CCCC(=O)[C@H](CCCNC(=N)N)NC(=O)[C@@H]1CCCN1C(=O)[C@@H](Cc1ccccc1)NC(C)=O)C(=O)N1CCC[C@H]1C(=O)N[C@@H](CCC(=O)O)C(=O)N[C@@H](CCC(=O)O)C(=O)N[C@@H](Cc1ccc(O)cc1)C(=O)N[C@@H](CC(C)C)C(=O)N[C@@H](CCC(N)=O)C(=O)O [P102]
- Ki (human α-thrombin): 0.56 nM
